Consider 7 compounds from patent US12427187B2, “Glucose-responsive insulin conjugates” (priority 2019, dated 2025).

SMILES strings stand for the structures. Read-outs that look alike come from different tables or passages of the source.

For one test, the target named is human IR(B) (Homo sapiens, UniProt P06213). In words: Insulin receptor phosphorylation assay (MSD pIR). Type of test: cell-based. The following applies: CHO cells expressing human IR(B), IP = inflection point, read-out: IR Activation IP.
Sequence of human IR(B) (P06213 28-758 limits assumed): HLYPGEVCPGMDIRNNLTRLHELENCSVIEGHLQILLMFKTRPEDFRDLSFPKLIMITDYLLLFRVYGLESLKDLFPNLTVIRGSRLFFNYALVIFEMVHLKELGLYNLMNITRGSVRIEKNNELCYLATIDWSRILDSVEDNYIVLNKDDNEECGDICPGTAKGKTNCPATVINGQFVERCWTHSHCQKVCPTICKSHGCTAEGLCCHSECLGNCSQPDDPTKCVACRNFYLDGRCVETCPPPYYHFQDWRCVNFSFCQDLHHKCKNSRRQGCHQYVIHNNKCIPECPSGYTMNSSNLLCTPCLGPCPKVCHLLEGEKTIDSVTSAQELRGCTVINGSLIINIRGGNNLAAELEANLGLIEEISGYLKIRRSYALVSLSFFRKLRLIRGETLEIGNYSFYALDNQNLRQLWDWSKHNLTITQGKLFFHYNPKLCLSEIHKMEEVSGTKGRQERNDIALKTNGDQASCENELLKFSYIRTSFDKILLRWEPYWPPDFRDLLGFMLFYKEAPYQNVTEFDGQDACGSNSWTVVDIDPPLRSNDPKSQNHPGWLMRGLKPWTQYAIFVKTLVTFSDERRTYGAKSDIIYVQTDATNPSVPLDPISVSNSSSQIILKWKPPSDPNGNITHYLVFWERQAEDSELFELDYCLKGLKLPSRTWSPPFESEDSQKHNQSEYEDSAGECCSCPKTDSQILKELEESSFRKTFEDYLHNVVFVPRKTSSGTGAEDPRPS
Sequence of human IR(B) (P06213 763-1382 partner limits assumed): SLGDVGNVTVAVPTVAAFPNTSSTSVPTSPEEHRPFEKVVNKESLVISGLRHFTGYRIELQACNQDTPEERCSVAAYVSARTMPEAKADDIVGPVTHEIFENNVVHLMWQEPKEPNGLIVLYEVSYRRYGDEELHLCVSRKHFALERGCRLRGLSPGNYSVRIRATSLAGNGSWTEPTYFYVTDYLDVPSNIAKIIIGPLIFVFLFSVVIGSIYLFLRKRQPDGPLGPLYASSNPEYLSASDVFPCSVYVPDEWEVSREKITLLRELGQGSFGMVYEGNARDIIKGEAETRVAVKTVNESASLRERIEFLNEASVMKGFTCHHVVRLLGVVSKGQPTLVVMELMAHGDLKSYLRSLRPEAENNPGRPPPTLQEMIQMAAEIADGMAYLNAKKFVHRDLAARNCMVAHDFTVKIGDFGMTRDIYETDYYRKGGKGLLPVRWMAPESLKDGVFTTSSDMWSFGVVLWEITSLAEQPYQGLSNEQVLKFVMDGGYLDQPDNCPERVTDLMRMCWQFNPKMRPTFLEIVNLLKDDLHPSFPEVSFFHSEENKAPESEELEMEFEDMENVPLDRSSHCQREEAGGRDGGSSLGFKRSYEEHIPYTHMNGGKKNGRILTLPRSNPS
The target of test [1] is T1, Human macrophage mannose receptor 1 (MRC1) (Homo sapiens, UniProt P22897).
T1 sequence (P22897 19-1456): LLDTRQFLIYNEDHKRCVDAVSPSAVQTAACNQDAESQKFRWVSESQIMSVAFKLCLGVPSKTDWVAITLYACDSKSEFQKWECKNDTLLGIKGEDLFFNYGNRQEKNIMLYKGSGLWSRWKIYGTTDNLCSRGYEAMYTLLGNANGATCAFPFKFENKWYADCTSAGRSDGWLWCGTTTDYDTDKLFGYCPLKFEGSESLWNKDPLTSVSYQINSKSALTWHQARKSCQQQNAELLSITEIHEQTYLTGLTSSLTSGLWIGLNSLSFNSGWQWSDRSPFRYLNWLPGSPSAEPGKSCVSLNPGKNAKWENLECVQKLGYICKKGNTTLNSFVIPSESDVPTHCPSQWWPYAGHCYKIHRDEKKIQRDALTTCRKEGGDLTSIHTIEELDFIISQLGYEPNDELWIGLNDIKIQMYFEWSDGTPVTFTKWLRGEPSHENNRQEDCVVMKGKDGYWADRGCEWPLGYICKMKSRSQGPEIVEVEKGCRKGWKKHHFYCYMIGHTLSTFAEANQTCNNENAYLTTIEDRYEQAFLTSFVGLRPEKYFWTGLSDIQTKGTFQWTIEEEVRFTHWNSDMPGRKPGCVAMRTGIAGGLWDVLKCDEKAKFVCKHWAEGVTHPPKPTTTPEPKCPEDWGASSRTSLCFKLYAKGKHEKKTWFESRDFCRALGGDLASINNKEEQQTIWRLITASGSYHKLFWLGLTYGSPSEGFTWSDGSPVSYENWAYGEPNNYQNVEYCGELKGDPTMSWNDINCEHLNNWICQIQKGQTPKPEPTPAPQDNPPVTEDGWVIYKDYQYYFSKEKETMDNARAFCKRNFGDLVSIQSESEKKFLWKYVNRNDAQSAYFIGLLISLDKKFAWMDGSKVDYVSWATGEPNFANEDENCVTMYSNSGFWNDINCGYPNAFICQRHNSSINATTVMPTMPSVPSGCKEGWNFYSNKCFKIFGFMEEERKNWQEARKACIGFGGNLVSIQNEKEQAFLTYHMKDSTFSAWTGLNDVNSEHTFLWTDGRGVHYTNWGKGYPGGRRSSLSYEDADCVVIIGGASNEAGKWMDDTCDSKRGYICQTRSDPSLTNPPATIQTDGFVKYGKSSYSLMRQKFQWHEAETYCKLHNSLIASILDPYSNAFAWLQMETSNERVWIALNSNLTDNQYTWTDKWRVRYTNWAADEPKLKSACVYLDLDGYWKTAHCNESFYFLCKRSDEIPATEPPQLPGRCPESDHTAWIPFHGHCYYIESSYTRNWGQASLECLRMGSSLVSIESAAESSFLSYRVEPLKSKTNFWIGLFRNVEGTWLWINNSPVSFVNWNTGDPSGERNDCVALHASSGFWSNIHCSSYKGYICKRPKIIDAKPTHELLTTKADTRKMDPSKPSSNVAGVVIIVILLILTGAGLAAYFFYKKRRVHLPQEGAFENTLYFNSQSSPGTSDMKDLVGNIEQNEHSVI
In words: MRC1 competition binding assay with Eu-mannosylated-BSA. As to conditions: IP = inflection point, read-out: MRC1 Binding IP.

[2] abbreviates: Method A: IR phosphorylation assay, 96-well.
[3] abbreviates: Method B: IR phosphorylation assay, 384-well with automated liquid dispense.

Protocol for human IR(B): CHO cells stably expressing human IR(B) were in grown in F12 cell media containing 10% FBS and antibiotics (G418, Penicillin/Strepavidin) for at least 8 hr, and then serum starved by switching to F12 media containing 0.5% BSA (insulin-free) in place of FBS for overnight growth. Cells were harvested and frozen in aliquots for use in the MSD pIR assay. Briefly, the frozen cells were plated in either 96-well (40,000 cells/well, Methods A) or 384-well (10,000 cells/well, Method B) clear tissue culture plates and allowed to recover. IOC molecules at the appropriate concentrations were added and the cells incubated for 8 min at 37° C. The media was aspirated and chilled MSD cell lysis buffer was added as per MSD kit instructions. The cells were lysed on ice for 40 min and the lysate then mixed for 10 min at rt. The lysate was transferred to the MSD kit pIR detection plates. The remainder of the assay was carried out following the MSD kit recommended protocol.
The in vitro biological activities towards insulin receptor (IR) were measured by either ligand competition assays or functional phosphorylation assays, as described above, labeled as following: Method A: IR phosphorylation assay based on 96-well; Method B: IR phosphorylation assay based on 384-well with automated liquid dispense; Method C: cell-based IR binding assay; Method D: SPA IR binding assay method E; Method E: MRC1 assay was performed in a 96-well plate; Method F: MRC1 assay was performed in a 384-well plate.

Regarding `CC(=O)[C@H](CCCCN)NC(=O)CCCCC(=O)N[C@@H](CCC(=O)NCCO[C@@H]1O[C@@H](C)[C@@H](O)[C@@H](O)[C@@H]1O)C(=O)N[C@@H](CCC(=O)NCCO[C@@H]1O[C@@H](C)[C@@H](O)[C@@H](O)[C@@H]1O)C(=O)N[C@@H](CCC(=O)NCCO[C@@H]1O[C@@H](C)[C@@H](O)[C@@H](O)[C@@H]1O)C(=O)NCCO[C@@H]1O[C@@H](C)[C@@H](O)[C@@H](O)[C@@H]1O` [IOC-19], the EC50 at human IR(B) (setting [2]) stood at 0.81 nM. For the same compound, the IC50 in test [1] (Method E: 96-well plate) stood at 16 nM.
In the same order, the values of `CC(=O)[C@H](CCCCN)NC(=O)[C@H](CCCCNC(=O)CCCCC(=O)N(CCOC1O[C@H](CO)[C@@H](O)[C@H](O)[C@@H]1O)CCOC1O[C@H](CO)[C@@H](O)[C@H](O)[C@@H]1O)NC(=O)[C@H](CCCNC(=O)CCCCC(=O)N(CCOC1O[C@H](CO)[C@@H](O)[C@H](O)[C@@H]1O)CCOC1O[C@H](CO)[C@@H](O)[C@H](O)[C@@H]1O)NC(=O)CCCCC(=O)N(CCOC1O[C@H](CO)[C@@H](O)[C@H](O)[C@@H]1O)CCOC1O[C@H](CO)[C@@H](O)[C@H](O)[C@@H]1O` (some centres unmarked) [IOC-44] are 8.4 nM and 31.3 nM.
For the compound `CC(=O)[C@H](CCCCN)NC(=O)CCCCC(=O)NCC(=O)N[C@@H](CCC(=O)N[C@@H](CCC(=O)NCCCCCC(=O)N(CC(=O)NCCO[C@H]1O[C@H](CO)[C@@H](O)[C@H](O)[C@@H]1O)CC(=O)NCCO[C@@H]1O[C@@H](C)[C@@H](O)[C@@H](O)[C@@H]1O)C(=O)NCCCCCC(=O)N(CC(=O)NCCO[C@H]1O[C@H](CO)[C@@H](O)[C@H](O)[C@@H]1O)CC(=O)NCCO[C@@H]1O[C@@H](C)[C@@H](O)[C@@H](O)[C@@H]1O)C(=O)NCCCCCC(=O)N(CC(=O)NCCO[C@H]1O[C@H](CO)[C@@H](O)[C@H](O)[C@@H]1O)CC(=O)NCCO[C@@H]1O[C@@H](C)[C@@H](O)[C@@H](O)[C@@H]1O` [IOC-50], at human IR(B) (setting [3]), the EC50 worked out at 0.84 nM. Besides, the IC50 in test [1] (Method F: 384-well plate) is 13.1 nM.
In the same order, the values of `CC(=O)[C@H](CCCCN)NC(=O)CCCCCNC(=O)[C@H](CCCCNC(=O)CCCCC(=O)NCCCC[C@@H](C(=O)NCCO[C@@H]1O[C@@H](C)[C@@H](O)[C@@H](O)[C@@H]1O)N(CC(=O)NCCO[C@@H]1O[C@@H](C)[C@@H](O)[C@@H](O)[C@@H]1O)CC(=O)NCCO[C@@H]1O[C@@H](C)[C@@H](O)[C@@H](O)[C@@H]1O)NC(=O)[C@H](CCCCNC(=O)CCCCC(=O)NCCCC[C@@H](C(=O)NCCO[C@@H]1O[C@@H](C)[C@@H](O)[C@@H](O)[C@@H]1O)N(CC(=O)NCCO[C@@H]1O[C@@H](C)[C@@H](O)[C@@H](O)[C@@H]1O)CC(=O)NCCO[C@@H]1O[C@@H](C)[C@@H](O)[C@@H](O)[C@@H]1O)NC(=O)CCCCC(=O)NCCCC[C@@H](C(=O)NCCO[C@@H]1O[C@@H](C)[C@@H](O)[C@@H](O)[C@@H]1O)N(CC(=O)NCCO[C@@H]1O[C@@H](C)[C@@H](O)[C@@H](O)[C@@H]1O)CC(=O)NCCO[C@@H]1O[C@@H](C)[C@@H](O)[C@@H](O)[C@@H]1O` [IOC-58] are 1.17 nM and 0.87 nM.
In the same order, the values of `CC(=O)[C@H](CCCCN)NC(=O)CCCCCNC(=O)[C@H](CCCCNC(=O)CCCCCNC(=O)CN(CC(=O)NCCO[C@@H]1O[C@@H](C)[C@@H](O)[C@@H](O)[C@@H]1O)CC(=O)N(CCOC1C[C@H](CO)[C@@H](O)[C@H](O)[C@@H]1O)CCOC1O[C@H](CO)[C@@H](O)[C@H](O)[C@@H]1O)NC(=O)[C@H](CCCCNC(=O)CCCCCNC(=O)CN(CC(=O)NCCO[C@@H]1O[C@@H](C)[C@@H](O)[C@@H](O)[C@@H]1O)CC(=O)N(CCOC1C[C@H](CO)[C@@H](O)[C@H](O)[C@@H]1O)CCOC1O[C@H](CO)[C@@H](O)[C@H](O)[C@@H]1O)NC(=O)CCCCCNC(=O)CN(CC(=O)NCCO[C@@H]1O[C@@H](C)[C@@H](O)[C@@H](O)[C@@H]1O)CC(=O)N(CCOC1O[C@H](CO)[C@@H](O)[C@H](O)[C@@H]1O)CCOC1O[C@H](CO)[C@@H](O)[C@H](O)[C@@H]1O` (some centres unmarked) [IOC-59] are 1.98 nM and 2.58 nM.
Take `CC(=O)[C@H](CCCCN)NC(=O)CCCCCNC(=O)[C@H](CCCCNC(=O)CCCCCNC(=O)CN(CC(=O)N(CCOC1O[C@H](CO)[C@@H](O)[C@H](O)[C@@H]1O)CCOC1O[C@H](CO)[C@@H](O)[C@H](O)[C@@H]1O)CC(=O)N(CCOC1O[C@H](CO)[C@@H](O)[C@H](O)[C@@H]1O)CCOC1O[C@H](CO)[C@@H](O)[C@H](O)[C@@H]1O)NC(=O)[C@H](CCCCNC(=O)CCCCCNC(=O)CN(CC(=O)N(CCOC1O[C@H](CO)[C@@H](O)[C@H](O)[C@@H]1O)CCOC1O[C@H](CO)[C@@H](O)[C@H](O)[C@@H]1O)CC(=O)N(CCOC1O[C@H](CO)[C@@H](O)[C@H](O)[C@@H]1O)CCOC1O[C@H](CO)[C@@H](O)[C@H](O)[C@@H]1O)NC(=O)CCCCCNC(=O)CN(CC(=O)N(CCOC1O[C@H](CO)[C@@H](O)[C@H](O)[C@@H]1O)CCOC1O[C@H](CO)[C@@H](O)[C@H](O)[C@@H]1O)CC(=O)N(CCOC1O[C@H](CO)[C@@H](O)[C@H](O)[C@@H]1O)CCOC1O[C@H](CO)[C@@H](O)[C@H](O)[C@@H]1O` (some centres unmarked) [IOC-61]: the EC50 at human IR(B) (setting [3]) stood at 1.12 nM. The IC50 in test [1] (Method E: 96-well plate) worked out at 1.89 nM.
As for `CC(=O)[C@H](CCCCN)NC(=O)CCCCCNC(=O)[C@H](CCCCNC(=O)CCCC(=O)N[C@@H](CCC(=O)N(CCOC1O[C@H](CO)[C@@H](O)[C@H](O)[C@@H]1O)CCOC1O[C@H](CO)[C@@H](O)[C@H](O)[C@@H]1O)C(=O)N(CCOC1O[C@H](CO)[C@@H](O)[C@H](O)[C@@H]1O)CCOC1O[C@H](CO)[C@@H](O)[C@H](O)[C@@H]1O)NC(=O)[C@H](CCCCNC(=O)CCCC(=O)N[C@@H](CCC(=O)N(CCOC1O[C@H](CO)[C@@H](O)[C@H](O)[C@@H]1O)CCOC1O[C@H](CO)[C@@H](O)[C@H](O)[C@@H]1O)C(=O)N(CCOC1O[C@H](CO)[C@@H](O)[C@H](O)[C@@H]1O)CCOC1O[C@H](CO)[C@@H](O)[C@H](O)[C@@H]1O)NC(=O)CCCC(=O)N[C@@H](CCC(=O)N(CCOC1O[C@H](CO)[C@@H](O)[C@H](O)[C@@H]1O)CCOC1O[C@H](CO)[C@@H](O)[C@H](O)[C@@H]1O)C(=O)N(CCOC1O[C@H](CO)[C@@H](O)[C@H](O)[C@@H]1O)CCOC1O[C@H](CO)[C@@H](O)[C@H](O)[C@@H]1O` (some centres unmarked) [IOC-62], on human IR(B) (setting [3]), the EC50 is 2.11 nM. For the same compound, the IC50 in test [1] (Method E: 96-well plate) was found to be 11.5 nM.
